Measurements: paper PMC3256212, “Mechanism and Function of Drosophila capa GPCR: A Desiccation Stress-Responsive Receptor with Functional Homology to Human NeuromedinU Receptor” (PLoS ONE, 2012)
Peptide text beside a SMILES is read from it.

System: tubule principal cells
Set-up: species or system Drosophila melanogaster
Method: All lines were maintained on a standard Drosophila diet at 22°C, 55% humidity on a 12∶12 h light∶dark photoperiod. Wild-type flies were obtained from a Canton-S (CS) stock. In order to drive cell- and tissue-specific gene expression of gene(s) of choice in vivo, the GAL4/UAS system was used, in which cell- or tissue-specific GAL4 ‘drivers’ enable binary expression of genes cloned downstream of the GAL4-binding Upstream Activating Sequence. Thus, for intact tubules, principal cell-specific expression can be driven using either c42-GAL4 [16] or Urate-Oxidase-GAL4 [17] drivers in an otherwise normal fly. […] Validation of the capaR RNAi line was confirmed by quantitative Q-RT-PCR using the primers 5′-[…]-3′ and 5′-[…]-3′ (Fig. S1). […]
Drosophila S2 cells, cultured under standard conditions were transiently transfected with the apoaequorin ORF [21] and a receptor ORF construct, and expression induced using CuSO4. […] Bioluminescence recordings were carried out using a Mithras LB940 automated 96-well plate reader (Berthold Technologies) and MikroWin software. […] At the end of each recording samples were disrupted by the addition of 100 µl lysis solution, and the [Ca^2+] concentrations calculated as previously described. […]

CC(C)C[C@H](NC(=O)[C@H](Cc1ccccc1)NC(=O)[C@H](Cc1ccc(O)cc1)NC(=O)CNC(=O)[C@H](CCCNC(=N)N)NC(=O)[C@H](CO)NC(=O)[C@H](CCC(N)=O)NC(=O)[C@H](CO)NC(=O)[C@H](C)NC(=O)[C@H](Cc1ccccc1)NC(=O)[C@@H]1CCCN1C(=O)[C@H](CO)NC(=O)[C@H](CCC(N)=O)NC(=O)[C@H](Cc1ccccc1)NC(=O)[C@H](CCC(=O)O)NC(=O)[C@H](CCC(=O)O)NC(=O)[C@H](CC(=O)O)NC(=O)[C@@H](NC(=O)[C@H](CCCNC(=N)N)NC(=O)[C@@H](N)Cc1ccccc1)C(C)C)C(=O)N[C@@H](Cc1ccccc1)C(=O)N[C@@H](CCCNC(=N)N)C(=O)N1CCC[C@H]1C(=O)N[C@@H](CCCNC(=N)N)C(=O)N[C@@H](CC(N)=O)C(N)=O [NMU-25, reference compound] (H-FRVDEEFQSPFASQSRGYFLFRPRN-NH2)
EC50: 27.1 nM
